Measured values from patent US12576061B2, “Agent for inducing regression of triglyceride deposit atherosclerosis” (OSAKA UNIVERSITY, priority 2020, dated 2026).
“Also recorded” adds a separate entry of the source.

Tests used:
[1] = tested on: dermal fibroblasts derived from a diabetic patient; experiment: Intracellular triglyceride content of dermal fibroblasts cultured with fatty acids; type: cell-based, human; settings: 2 days of culture; for potency for reducing triglyceride compared with other fatty acid: Example 4-2, 125 μM and 500 μM, FIG. 7
Text: A portion of skin tissue was sampled from a diabetic patient after the patient's consent. This sample skin tissue was subjected to primary culture (culture medium: DMEM/10% FBS) by a tissue fragment culture method (Explant method) and subsequent successive passages, and then developed into a cell line. The dermal fibroblasts derived from the patient were used to examine the effect of various fatty acids on intracellular triglyceride content. The intracellular triglyceride content of the dermal fibroblasts derived from the diabetic patient was about 5 times higher than the average intracellular triglyceride content of dermal fibroblasts derived from three healthy subjects. The long-chain fatty acids used were palmitic acid (C16:0), oleic acid (C18:1), linoleic acid ([…]), arachidonic acid (C20:4), and […] (C20:5). The medium-chain fatty acids used were heptanoic acid (C7:0) and capric acid (C10:0). These different fatty acids were separately added at 50 μM and 500 μM to the media of dermal fibroblasts from the diabetic patient described above. After 2 days of culture, the cells were collected, and the intracellular triglyceride content was measured using a triglyceride quantification kit (BioVision). The medium-chain fatty acids used were capric acid (C10:0), caprylic acid (C8:0), and 8-methylnonanoic acid ([…]). These different fatty acids were separately added at 125 μM and 500 μM to the media of dermal fibroblasts from the diabetic patient described above. After 2 days of culture, the cells were collected, and the intracellular triglyceride content was measured using a triglyceride quantification kit (BioVision). For controls, 500 μM palmitic acid (C16:0) or no fatty acid was added to the medium of the same dermal fibroblasts as those used above.

[2] = tested on: TG deposit atherosclerosis in the coronary artery; experiment: 3D image analysis (SYNAPSE VINCENT) of lipid accumulation and vascular lumen size in designated coronary segment; type: in vivo, human
Experimental: (§1) Before and 4 years after the start of the tricaprin/trisdecanoin diet, a standard coronary CT angiography was performed, and the images of the inside of the left anterior descending coronary artery were color-coded in the same manner as described in Example 1. The images of the designated segment of the coronary artery were analyzed with a 3D image analysis system SYNAPSE VINCENT v5.5 (FUJIFILM Corporation) to examine changes in lipid accumulation and vascular lumen size in the designated segment. In the image analysis, the area with CT values ranging −25 to 40 HU was regarded as lipid accumulation, and the area with CT values ranging 215 to 700 HU was regarded as the vascular lumen.
(§2) Angiograms of the coronary artery were taken before and 3 months after the start of the tricaprin/trisdecanoin diet. A standard coronary CT angiography was also performed, and the images were color-coded in the same manner as described in Example 1. The images of the designated segment of the coronary artery were subjected to 3D image analysis in the same manner as described in Example 2 to examine changes in lipid accumulation and vascular lumen size in the designated segment.

[3] = tested on: TG deposit atherosclerosis in the coronary artery; experiment: Coronary CT angiography, color-coded images of lipid accumulation in the coronary artery; type: in vivo, human
Experimental: Before and 50 days after the start of the tricaprin/trisdecanoin diet, a standard coronary CT angiography was performed to generate three-dimensional (3D) DICOM images of the left anterior descending coronary artery. The images were resampled to a voxel size of 0.1 mm^3 and color-coded according to CT values of individual voxels. Smoothing was applied between adjacent voxels. Colors were coded as follows: light gray (yellow in the color image): −25 HU to 0 HU (massive lipid accumulation); medium gray (orange in the color image): 0 HU to 40 HU (moderate lipid accumulation); dark gray (green in the color image): 40 HU to 125 HU (no lipid accumulation).
as §1, §2

[4] = tested on: coronary arteries of patient with idiopathic TGCV; experiment: Angiograms of the coronary artery, blood flow; type: in vivo, human; settings: Example 3 patient, refractory angina
Experimental: as §2

[5] = tested on: recurrent cerebral infarction; experiment: Clinical course of the patient during the tricaprin/trisdecanoin diet; type: in vivo, human; settings: Example 2 patient with history of cerebral infarction; 1.5 g/day for 4 years
Text: A person who had suffered from refractory angina for years. The patient had diabetes with a history of middle cerebral artery occlusion and cerebral infarction. The patient presented to hospital with a chief complaint of rest and nocturnal angina. […] Their chest pain was refractory to existing medications (sublingual nitroglycerin, calcium channel blockers, β-blockers, antiplatelet agents, and statins) and rather worsened. […] The patient received tricaprin/trisdecanoin three times per day after meals in a total daily dose of 1.5 g for 4 years.

[6] = Serum lipid levels before and after the start of the tricaprin/trisdecanoin diet; type: in vivo, human; settings: for LDL cholesterol, serum / HDL cholesterol, serum / TG (triglyceride), serum: After treatment
Experimental: (§3) The mean values of the triglyceride, LDL cholesterol, and HDL cholesterol levels measured before the start of the tricaprin/trisdecanoin diet were compared to those measured for 4 years after the start of the tricaprin/trisdecanoin diet. […] The LDL cholesterol level was under control within the normal range (60 to 119 mg/dL).
as §3, with “3 months” for “4 years”, “at a level lower than” for “within”

[7] = molecular target: T1, PCSK9 (Homo sapiens, UniProt Q8NBP7); settings: evolocumab group (484 patients) on statin treatment, cited from earlier work
T1 construct: randomly assigned to receive evolocumab (monoclonal antibody against PCSK9); host or cells: patients (in vivo, endogenous circulating PCSK9)

[8] = Example 2 patient, 1.5 g/day for 4 years
[9] = Example 3 patient, 4.5 g/day for 3 months

T1 sequence (Q8NBP7 153-692): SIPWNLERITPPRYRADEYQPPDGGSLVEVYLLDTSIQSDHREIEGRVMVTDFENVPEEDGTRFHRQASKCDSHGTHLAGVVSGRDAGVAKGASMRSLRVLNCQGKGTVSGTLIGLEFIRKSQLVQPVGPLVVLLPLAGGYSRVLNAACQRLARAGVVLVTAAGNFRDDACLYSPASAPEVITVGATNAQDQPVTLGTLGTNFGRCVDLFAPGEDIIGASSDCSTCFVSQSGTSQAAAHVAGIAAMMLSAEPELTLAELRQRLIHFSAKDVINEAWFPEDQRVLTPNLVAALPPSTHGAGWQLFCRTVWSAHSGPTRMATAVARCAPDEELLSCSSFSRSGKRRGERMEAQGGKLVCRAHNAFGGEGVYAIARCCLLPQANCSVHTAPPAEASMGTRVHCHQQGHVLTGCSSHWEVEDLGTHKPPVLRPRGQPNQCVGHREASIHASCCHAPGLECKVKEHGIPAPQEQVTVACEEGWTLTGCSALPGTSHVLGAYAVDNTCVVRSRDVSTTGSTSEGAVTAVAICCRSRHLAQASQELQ

Molecule: CC(C)CCCCCCC(=O)O [8-methylnonanoic acid]
- potency for reducing triglyceride compared with other fatty acid [1]: more potent medium-chain fatty acids for reducing triglyceride than palmitic acid

Molecule: CCCCCCCCCC(=O)O [capric acid]
- intracellular triglyceride content relative to control cells (100%) ([1]; Example 4-1, fatty acid added at 50 μM and 500 μM, FIG. 6): reduction in intracellular triglyceride content
- potency for reducing triglyceride compared with other fatty acid [1]: more potent medium-chain fatty acids for reducing triglyceride than palmitic acid

Molecule: CCCCCCCCCC(=O)OCC(COC(=O)CCCCCCCCC)OC(=O)CCCCCCCCC [tricaprin/trisdecanoin]
- Vascular lumen ([2]; % increase vs before diet, Example 2 patient, 1.5 g/day for 4 years, segment designated in FIG. 2, 2.2 cm, CT values 215 to 700 HU): 260% increase
- Vascular lumen ([2]; % increase, Example 3 patient, 4.5 g/day for 3 months, not stented segment Circumflex 7.2 cm): 17% increase
- Vascular lumen ([2]; % increase, Example 3 patient, 4.5 g/day for 3 months, not stented segment LAD 3.7 cm): 48% increase
- Vascular lumen ([2]; % increase, Example 3 patient, 4.5 g/day for 3 months, not stented segment RCA 3.4 cm): 24% increase
- Lipid accumulation ([2]; % reduction vs before diet, Example 2 patient, 1.5 g/day for 4 years, segment designated in FIG. 2, 2.2 cm, CT values -25 to 40 HU): 27% reduction
- Lipid accumulation ([2]; % reduction, Example 3 patient, 4.5 g/day for 3 months, not stented segment Circumflex 7.2 cm): 50% reduction
- Lipid accumulation ([2]; % reduction, Example 3 patient, 4.5 g/day for 3 months, not stented segment LAD 3.7 cm): 53% reduction
- Lipid accumulation ([2]; % reduction, Example 3 patient, 4.5 g/day for 3 months, not stented segment RCA 3.4 cm): 14% reduction
- TG deposit atherosclerosis in the coronary artery (color-coded CT images) ([3]; Example 1 patient, person with ATGL deficiency, 6 to 9 g/day after meals for 50 days, left anterior descending coronary artery): regression of TG deposit atherosclerosis in the coronary artery
- stenosis of the vascular lumen ([3]; Example 2 patient, refractory angina, diabetes, 1.5 g/day for 4 years, segment 7 to 9 cm from coronary ostium, before diet 90% to 75% diffuse stenosis): about 25%
- TG deposit atherosclerosis in the coronary artery [3, 8]: regression of TG deposit atherosclerosis in the coronary artery
- characteristic pattern of TG deposit atherosclerosis (lipid deposition protruding from adventitial toward medial side) [3, 8]: diminished or disappeared
- diameter of the vascular lumen through which the blood flowed [3, 8]: marked enlargement
- TG deposit atherosclerosis in the coronary artery [3, 9]: regression of TG deposit atherosclerosis in the coronary artery
- diameter of the vascular lumen through which the blood flowed [3, 9]: marked enlargement
- blood flow to the peripheral coronary arteries ([4]; 4.5 g/day for 3 months): clearly improved
- blood flow in the coronary arteries as a whole ([4]; oral 4.5 g/day for 3 months): improvement in coronary blood flow; also recorded: improvement in the blood flow
- recurrent cerebral infarction [5]: free from recurrent cerebral infarction
- LDL cholesterol, serum ([6]; Mean ± SD over 3 months, Example 3 patient, 4.5 g/day, on statin, before treatment 52 ± 2.9): 54 ± 1.8 mg/dL
- HDL cholesterol, serum ([6]; Mean ± SD over 3 months, Example 3 patient, 4.5 g/day, before treatment 35 ± 1.0): 38 ± 1.0 mg/dL
- TG (triglyceride), serum ([6]; Mean ± SD over 3 months, Example 3 patient, 4.5 g/day, before treatment 78 ± 2.1): 75 ± 11.3 mg/dL
- HDL cholesterol, serum ([6]; Mean ± SD over 4 years, Example 2 patient, 1.5 g/day, before treatment 34.5 ± 0.5): 33 ± 4.0 mg/dL
- LDL cholesterol, serum ([6]; Mean ± SD over 4 years, Example 2 patient, 1.5 g/day, before treatment 95 ± 9.0): 91 ± 13.6 mg/dL
- TG (triglyceride), serum ([6]; Mean ± SD over 4 years, Example 2 patient, 1.5 g/day, before treatment 308 ± 7.5): 334 ± 118.2 mg/dL
- effect on the serum lipid levels [6, 8]: no effect on the serum lipid levels
- effect on the serum lipid levels [6, 9]: no effect on the serum lipid levels

B1: evolocumab: monoclonal antibody against PCSK9 (antibody, chains of the INN, looked up, V domains shown)
VH: EVQLVQSGAEVKKPGASVKVSCKASGYTLTSYGISWVRQAPGQGLEWMGWVSFYNGNTNYAQKLQGRGTMTTDPSTSTAYMELRSLRSDDTAVYYCARGYGMDVWGQGTTVTVSS
VL: ESALTQPASVSGSPGQSITISCTGTSSDVGGYNSVSWYQQHPGKAPKLMIYEVSNRPSGVSNRFSGSKSGNTASLTISGLQAEDEADYYCNSYTSTSMVFGGGTKLTVL
- LDL cholesterol level at week 76 ([7]; 92.6 mg/dL before the start of the trial): 36.6 mg/dL
- LDL cholesterol level at week 76 as % of the level before the start of the trial [7]: about 40%
- percent atheroma volume, reduction at week 76 [7]: 0.95%
